row,melting point,Compound
1,72 to 73 °C,ClCc1coc(/C=C/c2ccccc2)n1
2,247 °C,Cc1ncc2c(c1O)COC2(C)C
3,175 to 178 °C,N#Cc1ccc(Nc2nc(Cl)ccc2[N+](=O)[O-])cc1
4,99 to 100 °C,Fc1ccc2sc(COc3cccc(CBr)c3)nc2c1
5,> 350 °C,CC(=O)N1CCc2[nH]cc3c(=O)n(-c4ccc(Cl)cc4)nc-3c2C1
6,143 to 144 °C,CCN1c2ncc(COc3ccc(F)cc3)cc2C(=O)N(C)c2ccc(Cl)nc21
7,84 to 85 °C,COC(=O)[C@H](/C=C/[C@H](Cc1ccccc1)NC(=O)OC(C)(C)C)Cc1ccccc1
8,217 to 218 °C,O=Cc1cc(O)c(O)cc1Cl
9,91 to 93 °C,N#CSCC(=O)c1cccc(Br)c1
10,150 to 152 °C,CCCC(=O)c1cnc2c(OC)cccc2c1Nc1c(C)cc2c(c1C)OCO2
11,100 to 102 °C,O=C1CCC(C(=O)Nc2ccccc2C(=O)c2ccccc2)O1 (stereo unspecified)
12,166 to 167 °C,CCCC(=O)c1cnc2c(C)cccc2c1Nc1ccc(Cl)cc1C
13,117 °C,CCCOc1cc(OC)cc(O)c1C(=O)C=Cc1ccc(OC)cc1
14,36 to 37.5 °C,COC(=O)C=C(C)NCc1ccccc1
15,92 to 93 °C,c1coc(-c2nc(COc3ccc(CCCn4ccnc4)cc3)co2)c1
16,195 °C,Cc1ncc2n1C(=O)N(C1CCN(C(=O)CCS(=O)(=O)c3ccc4cc(Cl)ccc4c3)CC1)C2
17,134 to 136 °C,CCCC(=O)Nc1c(C)cccc1C
18,94.7 °C,CCCCc1ccc(-c2cnc(-c3ccc(C#N)cc3)nc2)cc1
19,163 to 164 °C,C[C@H](NC1=NC=NC(N)(Cl)N1)c1ccccc1 (stereo partly specified)
20,149 to 151 °C,Cc1cc(OCc2ccc(-c3ccc(C(F)(F)F)cc3)nc2)ccc1OC(C)(C)C(=O)O
21,148 to 149 °C,CC(C)(C)c1ccc(C[C@@H](NC(=O)c2cccc3c(F)cccc23)[C@@H](O)c2ccc(F)cc2)cc1 (racemic)

row,melting point,Compound
1,210 to 212 °C,Cc1c(C)c2c(c(C)c1NC(=O)CC(C)(C)C)C(c1ccccn1)C(C)(C)O2 (stereo unspecified)
2,124 to 130 °C,CCOCC1COc2cc(C(=O)O)c(N)cc2O1 (stereo unspecified)
3,225 to 227 °C,Fc1ccc(-c2cc3[nH]ccn3n2)cc1
4,173 to 174 °C,CCCCC1(C2CCCC2)Cc2cc(OCC(=O)O)c(Cl)c(Cl)c2C1=O (stereo unspecified)
5,190 to 196 °C,Cc1ccc(F)cc1C(=O)Nc1ccc(C(=O)N2Cc3cccn3-c3ccccc32)cn1
6,182 to 184 °C,COc1c(N2CCC(NC3CC3)C(C)C2)c(F)cc2c(=O)c(C(=O)O)cn(C3CC3)c12 (stereo unspecified)
7,210 °C,CC(CCNC(=O)c1cc2cc(Cl)ccc2[nH]1)n1ccnc1 (stereo unspecified)
8,109 to 111 °C,CC(=O)c1ccc2c(c1)c1ccccc1n2CCCCl
9,205 to 206 °C,Cc1c(CO)cccc1NC(=O)CC12CC3CC(CC(C3)C1)C2
10,117 to 118 °C,COc1ccc(C(=O)c2ccc3cc(OC)ccc3c2)c(ON=C(C)C)c1
11,109 to 111 °C,Cc1ccnc2c1C(=O)CC(c1sc(Cl)cc1Cl)C2 (stereo unspecified)
12,138 to 141 °C,CC(C)(C)OC(=O)N1CCc2cc([N+](=O)[O-])ccc2C1
13,36 to 37 °C,CCCCCCCC/C=C\CCCCCCCCOc1cccc(N(CC(=O)OC)CC(=O)OC)c1
14,128 to 130 °C,O=C(c1c(F)cccc1F)N1CSCN(c2ccc(Cl)cc2)C1=O
15,197 to 200 °C,Cc1ccc2[nH]ncc2c1N
16,209 °C,C/C(=C\c1ccc(C(=O)O)cc1)c1ccc(O)c(C(C)(C)C)c1
17,138 to 140 °C,CC(C)C(=O)O[C@@H](OC(=O)ON1C(=O)[C@H](OC(=O)c2ccccc2)[C@@H](OC(=O)c2ccccc2)C1=O)C(C)C
18,245 to 248 °C,O=Cc1ccc(OC(F)F)c2oc3ccc([N+](=O)[O-])cc3c12
19,152 to 154 °C,COc1cc(OC)c(NC(=S)Nc2ccccc2)cc1O
20,228 °C,Cn1cnnc1COc1nn2c(-c3ccccc3F)nnc2cc1C1CCC1
